The values below come from patent US9353075B2, “Disubstituted beta-lactones as inhibitors of N-acylethanolamine acid amidase (NAAA)” (The Regents of the University of California, priority 2011, dated 2016).

Series [1] in a line: Chemical stability in PBS buffer pH 7.4. The format is physicochemical. The settings on record: phosphate-buffered saline, 0.01M PBS pH 7.4, 37° C., read-out: Stability in PBS buffer, pH 7.4 t1/2. As for the experimental part:
Chemical stability of select compounds was evaluated under physiological pH conditions (0.01M Phosphate-Buffered Saline, pH 7.4) for up to 24 h. Stock solutions of each compound (10 mM) were prepared freshly in DMSO. Each compound was incubated at a final concentration of 10 μM (1% DMSO) in pre-heated buffer (0.01M Phosphate-Buffered Saline (PBS), pH 7.4 at 37° C.). The sample solutions were divided into aliquots in glass vials (pre-heated at 37° C.) for each time point. The samples were maintained at 37° C. in the UPLC/MS Autosampler during the study (no shaking). A reference solution of each compound (final concentration: 10 μM at 1% DMSO) in pre-heated CH3CN (37° C.) was prepared from the stock solutions (10 mM in DMSO). The reference solutions were maintained at 37° C. in the UPLC/MS Autosampler during the study (no shaking). An internal standard (100 nM) was added to the sample and reference solutions. For each time point, the samples were analyzed directly by LC/MS without any further sample preparation. The samples were analyzed (triplicate injection) by monitoring the MS trace by Multiple Reaction Monitoring (MRM). The compound concentration (expressed as %) was calculated by dividing the peak area at each time point by the peak area at t=0 min. The reference solution was analyzed at the beginning (t=0 min.), and at the end of the study (t=24 h). The apparent half-lives (t1/2) of the disappearance of compound were calculated by a one-phase decay equation using a non-linear regression of compound concentration versus time.
The analyses were performed on a Waters ACQUITY UPLC/MS TQD system consisting of a TQD (Triple Quadropole Detector) Mass Spectrometer equipped with an Electrospray Ionization interface and a Photodiode Array Detector. The analyses were run on an ACQUITY UPLC BEH C18 1.7 μm 2.1×50 mm column with a VanGuard BEH C18 1.7 μm pre-column at 40° C. The mobile phase was 0.1% HCOOH in H2O (A) and 0.1% HCOOH in CH3CN (B) using a linear gradient: 0-0.2 min.: 5% B, 0.2-2.2 min.: 5-95% B, 2.2-2.3 min.: 95-5% B, 2.3-3 min.: 5% B with flow rate at 0.5 mL/min. […]

The target in a further series is r-NAAA (Rattus norvegicus (Rat), UniProt Q5KTC7). Description: r-NAAA inhibition, rat lung lysosomal NAAA preparation, UPLC/MS. The class given is biochemical. The settings on record: for inhibition at 3 µM: read-out: r-NAAA % inhib. @ 3 μM. The protocol:
Lysosomal NAAA protein preparation were obtained by homogenizing male Sprague-Dawley rat lungs (Charles River) in 20 mM Tris-HCl buffer pH 7.4 containing 0.32M sucrose. Samples were centrifuged at 800×g for 15 minutes at 4° C. Supernatants were then centrifuged at 12,000 g for 30 minutes at 4° C. Pellets were then resuspended in PBS pH 7.4 and subjected to a freeze/thaw cycle at −80° C. The suspension was finally centrifuged at 105,000×g for 1 hour at 4° C. The supernatant was then used in the enzymatic assay.
NAAA protein preparation was pre-incubated with various concentrations of test compounds or vehicle control in 100 mM NaH2PO4/Citrate buffer, 1% Triton-X, 3 mM DTT (pH 4.5) for 30 minutes at 37° C. Samples were then incubated with heptadecenoylethanolamide (50 μM, Avanti Polar Lipids) at 37° C. for 30 min. The reaction was terminated by addition of cold methanol containing heptadecanoic acid (NuCheck Prep) as internal standard. Samples were then analyzed by UPLC/MS (Acquity, Waters). Heptadecenoic and heptadecanoic acids were eluted on an Acquity UPLC BEH C18 column (50 mm length, 2.1 mm i.d., 1.7 μm pore size, Waters) isocratically at 0.5 mL/min for 1.5 min with a solvent mixture of 95% methanol and 5% water, both containing 0.25% Acetic Acid and 5 mM Ammonium Acetate. The column temperature was 40° C. Electrospray ionization was in the negative mode, capillary voltage was 0.5 kV, cone voltage was […], desolvation temperature was 500° C. N2 was used as drying gas at a flow rate of 1000 L/hour and a temperature of 500° C. The [M−H]^− ion was monitored in the selected-ion monitoring mode (m/z values: heptadecenoic acid 267.37, heptadecanoic acid 269.37). Calibration curves were generated using commercial heptadecenoic acid (NuCheck Prep). Inhibition of NAAA activity was calculated as reduction of heptadecenoic acid in the samples compared to vehicle controls. IC50 values were calculated by non-linear regression analysis of log [concentration]/inhibition curves using GraphPad Prism 5 (GraphPad Software Inc., CA—USA) applying a standard slope curve fitting.

The target of series [2] is T1, h-NAAA (Homo sapiens (Human), UniProt Q02083). Description: Fluorogenic h-NAAA assay. The class given is biochemical. The protocol: (§1) The assay was run in Optiplate 96-wells black plates, in a total reaction volume of 200 mL. NAAA protein preparations (4 ng) were pre-incubated for 10 minutes with various concentrations of test compounds or vehicle control (5% DMSO) in 100 mM citrate/phosphate buffer (pH 4.5) containing 3.0 mM DTT, 0.1% Triton X-100, 0.05% BSA, 150 mM NaCl. N-(4-methyl-2-oxo-chromen-7-yl)-hexadecanamide was used as a substrate (5.0 μM) and the reaction carried over for 30 minutes at 37° C. Fluorescence in the samples was quantified in a Perkin Elmer Envision plate reader using an excitation wavelength of 360 nm and emission 460 nm. IC50 values were calculated by non-linear regression analysis of log [concentration]/inhibition curves using GraphPad Prism 5 (GraphPad Software Inc., CA—USA) applying a standard slope curve fitting.
T1 sequence (Q02083 29-359): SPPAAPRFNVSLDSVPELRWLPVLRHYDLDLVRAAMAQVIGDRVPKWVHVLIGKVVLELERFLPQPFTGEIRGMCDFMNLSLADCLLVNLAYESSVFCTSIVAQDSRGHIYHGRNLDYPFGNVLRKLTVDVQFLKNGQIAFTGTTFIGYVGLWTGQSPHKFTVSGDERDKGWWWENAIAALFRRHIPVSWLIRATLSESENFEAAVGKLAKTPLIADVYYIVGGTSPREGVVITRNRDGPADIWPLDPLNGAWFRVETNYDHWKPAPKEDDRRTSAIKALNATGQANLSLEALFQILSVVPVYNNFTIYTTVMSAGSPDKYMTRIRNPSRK
as §1, with “μL.” for “mL.”, “preparation (4.0 μg) was” for “preparations (4 ng) were”, “min” for “minutes”, “The” for “Fluorescence in the”, “were then read” for “was quantified”

The target of series [3] is T1, h-NAAA. The series can be described thus: UPLC/MS h-NAAA assay. The format is biochemical. As for the experimental part:
NAAA protein preparation (10 μg) was pre-incubated with various concentrations of test compound or vehicle control in 100 mM NaH2PO4, 100 mM Tri Sodium Citrate Dehydrate, 0.1% Triton-X 100, 3 mM DTT, pH 4.5 for 30 min at 37° C. Duplicate samples were then incubated with 50 μM C17:1 10-cis-heptadecenoylethanolamide (Avanti Polar Lipids, Alabaster, Ala.—USA) at 37° C. for 30 minutes. The reaction was terminated by the addition of 0.2 mL of cold methanol containing 1 nmol of heptadecanoic acid (NuChek Prep, Elysian, Minn.—USA) as internal standard. Samples were then analyzed by UPLC/MS. Heptadecenoic and heptadecanoic acids were eluted on an Acquity UPLC BEH C18 column (50 mm length, 2.1 mm i.d., 1.7 μm pore size, Waters) isocratically at 0.5 mL/min for 1.5 min with a solvent mixture of 95% methanol and 5% water, both containing 0.25% Acetic Acid and 5 mM Ammonium Acetate. The column temperature was 40° C. Electrospray ionization was in the negative mode, capillary voltage was 2.7 kV, cone voltage was 45 V, extractor voltage was 3 V. The source temperature was 150° C. with a desolvation temperature of 400° C. N2 was used as drying gas at a cone flow of 100 L/hour and a desolvation flow of […]. The [M−H]-ion was monitored in the selected-ion monitoring mode (m/z values: heptadecenoic acid 267.37, heptadecanoic acid 269.37). Calibration curves were generated using commercial heptadecenoic acid (NuCheck Prep) Inhibition of NAAA activity was calculated as reduction of heptadecenoic acid in the samples compared to vehicle controls. IC50 values were calculated by non-linear regression analysis of log [concentration]/inhibition curves using GraphPad Prism 5 (GraphPad Software Inc., CA—USA) applying a standard slope curve fitting.

The test system of another series is DNFB-induced scratching. The series can be described thus: DNFB-induced scratching in mice. The class given is in vivo, mouse. The settings on record: topical, single dose. As for the experimental part: The methods included the following. Dermatitis was produced in mice using 2-4 dinitrofluorobenzene (DNFB) as described by Buckley and Nijkamp (1994), Am J Respir Grit Care Med 149:400-7. Mice were sensitized on two consecutive days with a 0.5% DNFB solution applied to the shaved abdomen. At day 8, the ears were challenged with a 0.2% DNFB solution. Ear thickness was determined by using a micrometer. Scratching was evaluated as number of episodes per 60 minutes period. Data were analysed by ANOVA followed by the Bonferroni's test. See also Hargreaves K, et al (1988), Pain 32: 77-88 for related information.
The methods include the following. Itching in mice was induced with DNFB as previously described. Additional studies were done with 48/80 model (an inducer of mast cell degranulation). 48/80 was given subcutaneously (30 mg per kg). Data were analysed by ANOVA followed by Bonferroni's test for multiple comparisons.

Series [4] has as its system 48/80-induced scratching (mast cell degranulation). Description: Compound 48/80-induced scratching in mice. The class given is in vivo, mouse. The settings on record: topical, single dose, 48/80 30 mg per kg s.c. The protocol:
The methods include the following. Itching in mice was induced with DNFB as previously described. Additional studies were done with 48/80 model (an inducer of mast cell degranulation). 48/80 was given subcutaneously (30 mg per kg).

r-NAAA, sequence (Q5KTC7 34-362): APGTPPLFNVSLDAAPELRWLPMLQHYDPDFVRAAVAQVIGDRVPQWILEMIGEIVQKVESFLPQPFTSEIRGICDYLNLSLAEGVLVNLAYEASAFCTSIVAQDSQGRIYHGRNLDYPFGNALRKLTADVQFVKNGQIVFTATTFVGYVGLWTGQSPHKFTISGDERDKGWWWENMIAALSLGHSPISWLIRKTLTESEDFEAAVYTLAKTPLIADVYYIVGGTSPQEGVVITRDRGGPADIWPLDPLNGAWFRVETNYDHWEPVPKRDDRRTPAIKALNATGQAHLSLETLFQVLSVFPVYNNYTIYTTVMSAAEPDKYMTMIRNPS

On to `O=C(N[C@H]1COC1=O)OCCCCCc1ccccc1`, for which the half-life at 10 μM in series [1] was found to be 23 min.
On to `CC[C@H]1OC(=O)[C@@H]1NC(=O)OCCCCCc1ccccc1` (relative stereo) [Example 47, 5-Phenylpentyl-N-[(2R*,3R*)-2-ethyl-4-oxo-oxetan-3-yl]-carbamate], for which the inhibition at 3 µM on r-NAAA was 92%. In addition, 0.004 µM corresponded to half-maximal inhibition at h-NAAA [2] (IC50).
For `CC[C@@H]1OC(=O)[C@@H]1NC(=O)OCCCCCc1ccccc1` (relative stereo) [Example 49, 5-Phenylpentyl-N-[(2S*,3R*)-2-ethyl-4-oxo-oxetan-3-yl]-carbamate], in that order: 89% and 0.009 µM.
Turning to `CC(C)[C@H]1OC(=O)[C@@H]1NC(=O)OC(C)(C)CCCCc1ccccc1` (relative stereo) [Example 55, (1,1-Dimethyl-5-phenyl-pentyl)-N-[(2R*,3R*)-2-isopropyl-4-oxo-oxetan-3-yl]-carbamate], the inhibition at 3 µM at r-NAAA was 98%. Also, the 50% inhibitory concentration (IC50) on h-NAAA [2] worked out at 0.012 µM.
In the case of `CC(C)(C)[C@H]1OC(=O)[C@@H]1NC(=O)OCCCCCc1ccccc1` (relative stereo) [Example 56, 5-Phenylpentyl-N-[(2R*,3R*)-2-tert-butyl-4-oxo-oxetan-3-yl]-carbamate], the inhibition at 3 µM on r-NAAA was found to be 75%. Further, the IC50 against h-NAAA [2] was 0.267 µM.
For `CC(C)(C)[C@@H]1OC(=O)[C@@H]1NC(=O)OCCCCCc1ccccc1` (relative stereo) [Example 58, 5-Phenylpentyl-N-[(2S*,3R*)-2-tert-butyl-4-oxo-oxetan-3-yl]-carbamate], in that order: 67% and 0.278 µM.
As to `C[C@@H]1OC(=O)[C@@H]1NC(=O)OCCCCC1CCCCC1` [Example 19, 4-cyclohexylbutyl-N-[(2S,3R)-2-methyl-4-oxo-oxetan-3-yl]-carbamate], the values for the IC50 against r-NAAA, at h-NAAA [3] and against h-NAAA [2] were 0.02 µM, 0.009 µM and 0.008 µM, respectively.
As for `C[C@H]1C[C@H]2[C@@H]3CCC4=CC(=O)C=C[C@]4(C)[C@@]3(F)[C@@H](O)C[C@]2(C)[C@@]1(O)C(=O)CCl` [clobetasol, reference compound], the DNFB-induced scratching result in the series on DNFB-induced scratching is “increased scratching”. Besides, the 48/80-induced scratching result in series [4] is listed as “without effect”.
The corresponding values for `C[C@@H]1C[C@H]2[C@@H]3CCC4=CC(=O)C=C[C@]4(C)[C@@]3(F)[C@@H](O)C[C@]2(C)[C@@]1(O)C(=O)CO` [dexamethasone, reference compound] are “increased scratching” and “without effect”.
As for `CC(CN1c2ccccc2Sc2ccccc21)N(C)C` (centres unmarked) [promethazine, reference compound], in the series with DNFB-induced scratching, the DNFB-induced scratching entry is recorded as “without effect”. Besides, the 48/80-induced scratching entry in series [4] is reported as “effective”.

The IC50 is the concentration that inhibits the measured activity by half. A low value points to inhibition by little substance.
